Reference: the CheMixHub viscosity set

Experiment: xn = mol fraction of the nth substance listed

CCCCCCCC + Cc1ccccc1
303.15 K, 101.33 kPa
Settings	viscosity [mPa·s]
x2 = 0.2634	0.47
x2 = 0.4184	0.464
x2 = 0.8282	0.485
x2 = 0.888	0.498
x2 = 0.9417	0.508

CCCCCCCCCCCCCC + Cc1ccccc1
viscosity [mPa·s], 101 kPa
Settings	x1 = 0.1106	x1 = 0.1996	x1 = 0.2947	x1 = 0.3965	x1 = 0.5013	x1 = 0.5988	x1 = 0.7002	x1 = 0.7982	x1 = 0.8995
298.15 K	0.697	0.803	0.909	1.038	1.168	1.318	1.468	1.664	1.86
303.15 K	0.654	0.748	0.842	0.962	1.081	1.211	1.341	1.513	1.685
308.15 K	0.613	0.699	0.786	0.894	1.002	1.115	1.228	1.384	1.54

CCCCCO + Cc1ccccc1
Settings	viscosity [mPa·s]
293.15 K, 101.33 kPa, x1 = 0.0767	0.623
293.15 K, 101.33 kPa, x1 = 0.155	0.678
293.15 K, 101.33 kPa, x1 = 0.2336	0.747
293.15 K, 101.33 kPa, x1 = 0.3074	0.834
293.15 K, 101.33 kPa, x1 = 0.3459	0.888
293.15 K, 101.33 kPa, x1 = 0.4529	1.094
293.15 K, 101.33 kPa, x1 = 0.5308	1.29
293.15 K, 101.33 kPa, x1 = 0.601	1.512
293.15 K, 101.33 kPa, x1 = 0.6728	1.795
293.15 K, 101.33 kPa, x1 = 0.7788	2.338
293.15 K, 101.33 kPa, x1 = 0.8616	2.883
293.15 K, 101.33 kPa, x1 = 0.8898	3.096
303.15 K, 101 kPa, x1 = 0.0999	0.564
303.15 K, 101 kPa, x1 = 0.1999	0.6272
303.15 K, 101 kPa, x1 = 0.3	0.7213
303.15 K, 101 kPa, x1 = 0.4	0.8366
303.15 K, 101 kPa, x1 = 0.4999	0.9954
303.15 K, 101 kPa, x1 = 0.6001	1.221
303.15 K, 101 kPa, x1 = 0.6999	1.475
303.15 K, 101 kPa, x1 = 0.8001	1.822
303.15 K, 101 kPa, x1 = 0.9001	2.289
303.15 K, 101.33 kPa, x2 = 0.0745	2.508
303.15 K, 101.33 kPa, x2 = 0.2114	1.81
303.15 K, 101.33 kPa, x2 = 0.4291	1.101
303.15 K, 101.33 kPa, x2 = 0.5202	0.925
303.15 K, 101.33 kPa, x2 = 0.609	0.787
303.15 K, 101.33 kPa, x2 = 0.7058	0.678
303.15 K, 101.33 kPa, x2 = 0.8063	0.592
303.15 K, 101.33 kPa, x2 = 0.8629	0.564
303.15 K, 101.33 kPa, x2 = 0.9443	0.536
308.15 K, 101 kPa, x1 = 0.0999	0.5329
308.15 K, 101 kPa, x1 = 0.1999	0.5883
308.15 K, 101 kPa, x1 = 0.3	0.6717
308.15 K, 101 kPa, x1 = 0.4	0.7723
308.15 K, 101 kPa, x1 = 0.4999	0.9102
308.15 K, 101 kPa, x1 = 0.6001	1.106
308.15 K, 101 kPa, x1 = 0.6999	1.324
308.15 K, 101 kPa, x1 = 0.8001	1.617
308.15 K, 101 kPa, x1 = 0.9001	2.077
308.15 K, 101.33 kPa, x2 = 0.0745	2.202
308.15 K, 101.33 kPa, x2 = 0.2114	1.611
308.15 K, 101.33 kPa, x2 = 0.4291	1.001
308.15 K, 101.33 kPa, x2 = 0.5202	0.846
308.15 K, 101.33 kPa, x2 = 0.609	0.726
308.15 K, 101.33 kPa, x2 = 0.7058	0.63
308.15 K, 101.33 kPa, x2 = 0.8063	0.554
308.15 K, 101.33 kPa, x2 = 0.8629	0.53
308.15 K, 101.33 kPa, x2 = 0.9443	0.507
313.15 K, 101 kPa, x1 = 0.0999	0.4988
313.15 K, 101 kPa, x1 = 0.1999	0.5518
313.15 K, 101 kPa, x1 = 0.3	0.6271
313.15 K, 101 kPa, x1 = 0.4	0.7149
313.15 K, 101 kPa, x1 = 0.4999	0.8351
313.15 K, 101 kPa, x1 = 0.6001	1.004
313.15 K, 101 kPa, x1 = 0.6999	1.192
313.15 K, 101 kPa, x1 = 0.8001	1.442
313.15 K, 101 kPa, x1 = 0.9001	1.838
313.15 K, 101.33 kPa, x2 = 0.0745	1.94
313.15 K, 101.33 kPa, x2 = 0.2114	1.439
313.15 K, 101.33 kPa, x2 = 0.4291	0.911
313.15 K, 101.33 kPa, x2 = 0.5202	0.778
313.15 K, 101.33 kPa, x2 = 0.609	0.67
313.15 K, 101.33 kPa, x2 = 0.7058	0.587
313.15 K, 101.33 kPa, x2 = 0.8063	0.52
313.15 K, 101.33 kPa, x2 = 0.8629	0.5
313.15 K, 101.33 kPa, x2 = 0.9443	0.484
318.15 K, 101 kPa, x1 = 0.0999	0.4725
318.15 K, 101 kPa, x1 = 0.1999	0.5195
318.15 K, 101 kPa, x1 = 0.3	0.5876
318.15 K, 101 kPa, x1 = 0.4	0.6645
318.15 K, 101 kPa, x1 = 0.4999	0.7703
318.15 K, 101 kPa, x1 = 0.6001	0.9178
318.15 K, 101 kPa, x1 = 0.6999	1.08
318.15 K, 101 kPa, x1 = 0.8001	1.296
318.15 K, 101 kPa, x1 = 0.9001	1.63
323.15 K, 101 kPa, x1 = 0.0999	0.4511
323.15 K, 101 kPa, x1 = 0.1999	0.4907
323.15 K, 101 kPa, x1 = 0.3	0.5523
323.15 K, 101 kPa, x1 = 0.4	0.6202
323.15 K, 101 kPa, x1 = 0.4999	0.7139
323.15 K, 101 kPa, x1 = 0.6001	0.8422
323.15 K, 101 kPa, x1 = 0.6999	0.982
323.15 K, 101 kPa, x1 = 0.8001	1.169
323.15 K, 101 kPa, x1 = 0.9001	1.459

ClC(Cl)=C(Cl)Cl + Cc1ccccc1
303.15 K, 101 kPa
Settings	viscosity [mPa·s]
x1 = 0.1502	0.551
x1 = 0.2552	0.574
x1 = 0.2612	0.574
x1 = 0.3392	0.597
x1 = 0.3745	0.599
x1 = 0.4608	0.621
x1 = 0.4715	0.629
x1 = 0.5666	0.662
x1 = 0.5759	0.652
x1 = 0.6428	0.691
x1 = 0.6834	0.688
x1 = 0.6905	0.708
x1 = 0.7448	0.706
x1 = 0.7529	0.73
x1 = 0.8376	0.76
x1 = 0.8395	0.738
x1 = 0.9336	0.793

O=[N+]([O-])c1ccccc1 + Cc1ccccc1
viscosity [mPa·s], 101 kPa
Settings	x1 = 0.115	x1 = 0.227	x1 = 0.344	x1 = 0.457	x1 = 0.577	x1 = 0.675	x1 = 0.787	x1 = 0.87
298.15 K	0.622	0.702	0.803	0.894	1.03	1.169	1.374	1.542
303.15 K	0.586	0.66	0.743	0.837	0.956	1.08	1.252	1.42
308.15 K	0.554	0.618	0.694	0.783	0.922	1.042	1.157	1.313

ClC(Cl)=C(Cl)Cl + ClC(Cl)(Cl)Cl
Settings	viscosity [mPa·s]
298.15 K, 101 kPa, x2 = 0.0973	0.8311
298.15 K, 101 kPa, x2 = 0.1594	0.8241
298.15 K, 101 kPa, x2 = 0.244	0.8182
298.15 K, 101 kPa, x2 = 0.3103	0.8153
298.15 K, 101 kPa, x2 = 0.4139	0.813
298.15 K, 101 kPa, x2 = 0.4636	0.8122
298.15 K, 101 kPa, x2 = 0.5633	0.814
298.15 K, 101 kPa, x2 = 0.63	0.8216
298.15 K, 101 kPa, x2 = 0.6339	0.8211
298.15 K, 101 kPa, x2 = 0.7582	0.8392
298.15 K, 101 kPa, x2 = 0.8067	0.8482
298.15 K, 101 kPa, x2 = 0.9135	0.8744
303.15 K, 101.33 kPa, x1 = 0.3238	0.818
303.15 K, 101.33 kPa, x1 = 0.402	0.814
303.15 K, 101.33 kPa, x1 = 0.56	0.808
303.15 K, 101.33 kPa, x1 = 0.6543	0.801
303.15 K, 101.33 kPa, x1 = 0.7629	0.8
303.15 K, 101.33 kPa, x1 = 0.8308	0.798
303.15 K, 101.33 kPa, x1 = 0.9128	0.797

CCOCCOCCO + ClC(Cl)=C(Cl)Cl
298.15 K, 101.33 kPa
Settings	viscosity [mPa·s]
x1 = 0.0123	0.859
x1 = 0.0256	0.874
x1 = 0.0478	0.903
x1 = 0.0645	0.928
x1 = 0.0824	0.956
x1 = 0.097	0.979
x1 = 0.1126	1.012
x1 = 0.1488	1.081
x1 = 0.1758	1.135
x1 = 0.2057	1.196
x1 = 0.2427	1.278
x1 = 0.2829	1.371
x1 = 0.3332	1.493
x1 = 0.3756	1.61
x1 = 0.4139	1.717
x1 = 0.4562	1.843
x1 = 0.4889	1.949
x1 = 0.5216	2.063
x1 = 0.5734	2.246
x1 = 0.6176	2.412
x1 = 0.6576	2.552
x1 = 0.6972	2.699
x1 = 0.7396	2.858
x1 = 0.8033	3.119
x1 = 0.854	3.335
x1 = 0.8945	3.519
x1 = 0.9227	3.64
x1 = 0.9398	3.718
x1 = 0.9556	3.786
x1 = 0.9736	3.873
x2 = 0.0112	3.936
